From paper PMC5762315, “Inhibition of polo-like kinase 4 (PLK4): a new therapeutic option for rhabdoid tumors and pediatric medulloblastoma” (Oncotarget, 2017)
Several values for one entry are separate records, joined by “and”; a condition that tells them apart may be missing. Equal values may be shown once.

Columns and labels:
Assay in all cases: biochemical
Type in all cases: biochemical
[1] = target: various kinases (Homo sapiens, UniProt O75116); settings: kinase ROCK2; ZLYTE
[2] = target: various kinases (Homo sapiens, UniProt O75582); settings: kinase RPS6KA5 (MSK1); ZLYTE
Sequence of various kinases (Homo sapiens, UniProt O75582) (O75582 whole entry): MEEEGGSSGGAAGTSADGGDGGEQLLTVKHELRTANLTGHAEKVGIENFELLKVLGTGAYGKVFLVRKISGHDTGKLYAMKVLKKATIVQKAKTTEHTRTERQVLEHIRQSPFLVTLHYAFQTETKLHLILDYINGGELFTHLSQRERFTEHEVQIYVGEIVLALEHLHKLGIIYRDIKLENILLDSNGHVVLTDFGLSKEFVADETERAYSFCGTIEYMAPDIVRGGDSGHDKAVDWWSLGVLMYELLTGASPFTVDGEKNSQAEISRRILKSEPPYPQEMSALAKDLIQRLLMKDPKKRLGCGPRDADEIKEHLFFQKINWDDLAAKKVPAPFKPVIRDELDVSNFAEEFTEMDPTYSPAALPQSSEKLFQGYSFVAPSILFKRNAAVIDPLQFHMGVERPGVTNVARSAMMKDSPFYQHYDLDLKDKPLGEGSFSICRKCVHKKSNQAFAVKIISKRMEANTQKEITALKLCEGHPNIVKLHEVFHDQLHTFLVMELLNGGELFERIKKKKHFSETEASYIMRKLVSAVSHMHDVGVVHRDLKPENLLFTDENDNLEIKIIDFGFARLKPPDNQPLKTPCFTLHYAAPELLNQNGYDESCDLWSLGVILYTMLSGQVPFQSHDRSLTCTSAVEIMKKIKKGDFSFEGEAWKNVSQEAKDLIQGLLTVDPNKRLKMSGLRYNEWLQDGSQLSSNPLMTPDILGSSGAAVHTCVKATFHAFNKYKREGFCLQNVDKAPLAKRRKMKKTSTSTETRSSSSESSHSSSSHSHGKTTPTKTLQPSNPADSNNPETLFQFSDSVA

[3] = target: various kinases (Homo sapiens, UniProt O75676); settings: kinase RPS6KA4 (MSK2); ZLYTE
Sequence of various kinases (Homo sapiens, UniProt O75676) (O75676 whole entry): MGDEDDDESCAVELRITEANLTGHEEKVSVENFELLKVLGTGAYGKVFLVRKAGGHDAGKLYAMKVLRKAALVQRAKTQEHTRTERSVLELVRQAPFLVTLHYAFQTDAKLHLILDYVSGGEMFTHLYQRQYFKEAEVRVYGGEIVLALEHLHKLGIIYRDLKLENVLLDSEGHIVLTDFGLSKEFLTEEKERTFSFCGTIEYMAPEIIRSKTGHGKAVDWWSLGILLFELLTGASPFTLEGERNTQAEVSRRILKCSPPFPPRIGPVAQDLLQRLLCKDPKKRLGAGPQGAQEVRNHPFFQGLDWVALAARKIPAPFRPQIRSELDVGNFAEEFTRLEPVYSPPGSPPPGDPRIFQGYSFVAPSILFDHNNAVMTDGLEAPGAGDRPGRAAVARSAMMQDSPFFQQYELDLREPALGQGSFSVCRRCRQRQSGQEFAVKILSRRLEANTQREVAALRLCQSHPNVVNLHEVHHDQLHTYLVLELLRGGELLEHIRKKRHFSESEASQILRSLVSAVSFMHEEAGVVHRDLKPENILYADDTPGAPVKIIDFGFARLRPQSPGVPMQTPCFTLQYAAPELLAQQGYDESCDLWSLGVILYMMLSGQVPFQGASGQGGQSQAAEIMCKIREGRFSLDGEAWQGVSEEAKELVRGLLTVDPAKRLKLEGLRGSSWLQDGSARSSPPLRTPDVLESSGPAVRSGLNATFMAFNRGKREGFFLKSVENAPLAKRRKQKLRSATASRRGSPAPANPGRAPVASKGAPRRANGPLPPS

[4] = target: various kinases (Homo sapiens, UniProt P00519, F317L); settings: ABL1 F317L
[5] = target: various kinases (Homo sapiens, UniProt P00519, G250E); settings: ABL1 G250E
[6] = target: various kinases (Homo sapiens, UniProt P00533, L858R/T790M); settings: EGFR (ErbB1) T790M L858R
[7] = target: various kinases (Homo sapiens, UniProt P06239); settings: LCK
[8] = target: various kinases (Homo sapiens, UniProt P08069); settings: IGF1R
[9] = target: various kinases (Homo sapiens, UniProt P08631); settings: HCK
[10] = target: various kinases (Homo sapiens, UniProt P11362); settings: FGFR1
[11] = target: various kinases (Homo sapiens, UniProt P12931); settings: kinase SRC; ZLYTE
Sequence of various kinases (Homo sapiens, UniProt P12931) (P12931 whole entry): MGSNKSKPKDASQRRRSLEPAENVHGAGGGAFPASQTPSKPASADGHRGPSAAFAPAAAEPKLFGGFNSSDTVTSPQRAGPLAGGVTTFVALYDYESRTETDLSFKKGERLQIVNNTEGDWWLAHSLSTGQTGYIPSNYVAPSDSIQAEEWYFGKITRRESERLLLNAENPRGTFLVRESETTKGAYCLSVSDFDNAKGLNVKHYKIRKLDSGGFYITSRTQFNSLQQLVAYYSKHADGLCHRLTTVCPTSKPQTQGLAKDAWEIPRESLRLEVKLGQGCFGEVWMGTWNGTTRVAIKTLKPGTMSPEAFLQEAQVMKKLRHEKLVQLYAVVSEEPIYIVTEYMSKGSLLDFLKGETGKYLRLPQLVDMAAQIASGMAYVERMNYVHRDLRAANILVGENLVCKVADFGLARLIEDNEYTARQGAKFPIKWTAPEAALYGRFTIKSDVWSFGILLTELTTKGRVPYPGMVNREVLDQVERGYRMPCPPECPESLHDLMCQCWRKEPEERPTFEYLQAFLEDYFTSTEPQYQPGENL

[12] = target: various kinases (Homo sapiens, UniProt P14616); settings: INSRR (IRR)
[13] = target: various kinases (Homo sapiens, UniProt P16234, V561D); settings: PDGFRA V561D
[14] = target: various kinases (Homo sapiens, UniProt P21709); settings: EPHA1
[15] = target: various kinases (Homo sapiens, UniProt P21802); settings: FGFR2
[16] = target: various kinases (Homo sapiens, UniProt P22607); settings: FGFR3
[17] = target: various kinases (Homo sapiens, UniProt P23443); settings: kinase RPS6KB1 (p70S6K); ZLYTE
Sequence of various kinases (Homo sapiens, UniProt P23443) (P23443 whole entry): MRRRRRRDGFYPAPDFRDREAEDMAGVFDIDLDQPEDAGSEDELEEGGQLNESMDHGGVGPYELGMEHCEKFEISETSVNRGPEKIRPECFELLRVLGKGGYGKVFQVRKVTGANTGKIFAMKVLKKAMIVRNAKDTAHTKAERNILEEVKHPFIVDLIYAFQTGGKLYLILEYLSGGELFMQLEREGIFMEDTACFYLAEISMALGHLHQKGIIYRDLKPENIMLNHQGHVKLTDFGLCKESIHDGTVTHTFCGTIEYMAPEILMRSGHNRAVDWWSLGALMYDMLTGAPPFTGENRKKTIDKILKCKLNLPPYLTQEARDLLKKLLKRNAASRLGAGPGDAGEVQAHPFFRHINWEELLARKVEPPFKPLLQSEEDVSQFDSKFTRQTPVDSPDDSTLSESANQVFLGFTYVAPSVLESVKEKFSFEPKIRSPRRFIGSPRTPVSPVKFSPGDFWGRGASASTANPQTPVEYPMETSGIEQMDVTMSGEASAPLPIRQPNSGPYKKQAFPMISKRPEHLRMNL

[18] = target: various kinases (Homo sapiens, UniProt P30530); settings: AXL
[19] = target: various kinases (Homo sapiens, UniProt P32298); settings: GRK4
[20] = target: various kinases (Homo sapiens, UniProt P36896); settings: ACVR1B (ALK4)
[21] = target: various kinases (Homo sapiens, UniProt P53779); settings: MAPK10 (JNK3)
[22] = target: various kinases (Homo sapiens, UniProt P54753); settings: EPHB3
[23] = target: various kinases (Homo sapiens, UniProt P54756); settings: EPHA5
[24] = target: various kinases (Homo sapiens, UniProt P54762); settings: EPHB1
[25] = target: various kinases (Homo sapiens, UniProt P54764); settings: EPHA4
[26] = target: various kinases (Homo sapiens, UniProt P78362); settings: kinase SRPK2; ZLYTE
Sequence of various kinases (Homo sapiens, UniProt P78362) (P78362 whole entry): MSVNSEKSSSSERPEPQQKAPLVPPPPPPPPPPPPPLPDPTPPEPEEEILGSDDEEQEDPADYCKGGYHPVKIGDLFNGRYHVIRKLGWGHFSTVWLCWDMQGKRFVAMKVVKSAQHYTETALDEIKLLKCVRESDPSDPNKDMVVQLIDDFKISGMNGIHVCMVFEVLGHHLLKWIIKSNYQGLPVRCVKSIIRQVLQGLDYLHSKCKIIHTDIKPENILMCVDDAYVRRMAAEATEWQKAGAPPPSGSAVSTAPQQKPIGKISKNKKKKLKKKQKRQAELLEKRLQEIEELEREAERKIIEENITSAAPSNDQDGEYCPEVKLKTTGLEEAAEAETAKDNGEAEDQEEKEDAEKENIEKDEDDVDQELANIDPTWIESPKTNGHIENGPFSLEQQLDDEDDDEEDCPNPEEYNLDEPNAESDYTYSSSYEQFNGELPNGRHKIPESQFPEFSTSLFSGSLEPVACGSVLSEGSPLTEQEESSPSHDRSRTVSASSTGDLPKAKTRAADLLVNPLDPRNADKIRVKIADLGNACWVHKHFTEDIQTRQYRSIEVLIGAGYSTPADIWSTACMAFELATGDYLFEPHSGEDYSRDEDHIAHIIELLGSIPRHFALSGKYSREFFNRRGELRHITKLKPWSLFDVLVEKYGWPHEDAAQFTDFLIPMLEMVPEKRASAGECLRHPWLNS

[27] = target: various kinases (Homo sapiens, UniProt Q04759); settings: kinase PRKCQ (PKC theta); ZLYTE
Sequence of various kinases (Homo sapiens, UniProt Q04759) (Q04759 whole entry): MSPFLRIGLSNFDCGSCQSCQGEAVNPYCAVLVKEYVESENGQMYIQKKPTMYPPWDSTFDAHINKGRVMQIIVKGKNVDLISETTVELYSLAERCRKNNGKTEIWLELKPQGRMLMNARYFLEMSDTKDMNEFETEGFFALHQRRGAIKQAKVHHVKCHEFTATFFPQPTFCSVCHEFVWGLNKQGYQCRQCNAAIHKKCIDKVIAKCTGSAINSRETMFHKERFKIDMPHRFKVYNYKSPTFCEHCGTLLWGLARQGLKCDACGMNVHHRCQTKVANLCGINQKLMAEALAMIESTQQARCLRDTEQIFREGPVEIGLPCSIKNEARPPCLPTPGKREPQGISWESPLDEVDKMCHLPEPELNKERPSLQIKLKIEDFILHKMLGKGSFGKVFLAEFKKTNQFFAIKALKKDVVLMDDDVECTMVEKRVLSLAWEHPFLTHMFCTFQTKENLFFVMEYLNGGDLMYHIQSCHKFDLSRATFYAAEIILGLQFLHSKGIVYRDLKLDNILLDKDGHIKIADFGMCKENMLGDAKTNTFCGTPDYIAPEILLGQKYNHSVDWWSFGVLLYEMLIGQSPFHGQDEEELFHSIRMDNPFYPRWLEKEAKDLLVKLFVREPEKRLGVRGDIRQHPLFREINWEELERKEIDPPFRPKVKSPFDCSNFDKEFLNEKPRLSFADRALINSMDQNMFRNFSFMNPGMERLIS

[28] = target: various kinases (Homo sapiens, UniProt Q06187); settings: BTK
[29] = target: various kinases (Homo sapiens, UniProt Q08881); settings: ITK
[30] = target: various kinases (Homo sapiens, UniProt Q13882); settings: kinase PTK6 (Brk); ZLYTE
Sequence of various kinases (Homo sapiens, UniProt Q13882) (Q13882 whole entry): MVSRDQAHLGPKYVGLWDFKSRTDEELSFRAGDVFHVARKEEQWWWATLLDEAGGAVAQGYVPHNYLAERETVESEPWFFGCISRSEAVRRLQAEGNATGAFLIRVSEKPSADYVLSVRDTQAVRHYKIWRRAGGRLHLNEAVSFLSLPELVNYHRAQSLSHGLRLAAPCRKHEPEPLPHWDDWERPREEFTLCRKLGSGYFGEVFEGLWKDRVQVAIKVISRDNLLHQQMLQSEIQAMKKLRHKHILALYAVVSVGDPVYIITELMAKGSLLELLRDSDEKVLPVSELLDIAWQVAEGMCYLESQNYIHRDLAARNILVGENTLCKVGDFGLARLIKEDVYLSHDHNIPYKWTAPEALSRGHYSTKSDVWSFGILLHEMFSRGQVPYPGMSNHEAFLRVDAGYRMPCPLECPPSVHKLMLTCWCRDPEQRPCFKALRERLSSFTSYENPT

[31] = target: various kinases (Homo sapiens, UniProt Q9H0K1); settings: kinase SNF1LK2; ZLYTE
[32] = target: various kinases (Homo sapiens, UniProt Q9H792); settings: PEAK1
[33] = target: various kinases (Homo sapiens, UniProt Q9HC98); settings: NEK6
[34] = target: various kinases (Homo sapiens, UniProt Q9UPE1); settings: kinase STK23 (MSSK1); ZLYTE
Sequence of various kinases (Homo sapiens, UniProt Q9UPE1) (Q9UPE1 whole entry): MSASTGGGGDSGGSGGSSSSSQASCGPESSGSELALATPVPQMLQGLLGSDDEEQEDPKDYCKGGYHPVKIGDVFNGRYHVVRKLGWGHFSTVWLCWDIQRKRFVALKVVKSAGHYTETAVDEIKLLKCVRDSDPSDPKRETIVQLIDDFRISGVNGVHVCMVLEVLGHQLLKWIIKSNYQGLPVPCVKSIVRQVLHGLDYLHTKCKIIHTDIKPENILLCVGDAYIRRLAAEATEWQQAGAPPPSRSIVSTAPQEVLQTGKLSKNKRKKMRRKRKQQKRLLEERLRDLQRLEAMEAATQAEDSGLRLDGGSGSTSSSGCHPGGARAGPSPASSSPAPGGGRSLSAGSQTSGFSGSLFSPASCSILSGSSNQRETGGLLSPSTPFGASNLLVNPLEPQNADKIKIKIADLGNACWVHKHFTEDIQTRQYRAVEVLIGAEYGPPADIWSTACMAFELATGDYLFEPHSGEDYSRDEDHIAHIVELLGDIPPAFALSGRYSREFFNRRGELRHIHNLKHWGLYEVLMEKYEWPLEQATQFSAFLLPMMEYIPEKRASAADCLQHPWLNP

[35] = target: various kinases (Homo sapiens, UniProt Q9Y6E0); settings: kinase STK24 (MST3); ZLYTE
[36] = target: various kinases (Homo sapiens, UniProt Q9Y6M4); settings: CSNK1G3 (CK1 gamma 3)

COc1ccc2c(c1)[C@]1(C[C@H]1c1ccc3c(/C=C/c4ccc(CN5C[C@@H](C)O[C@@H](C)C5)cc4)n[nH]c3c1)C(=O)N2 [CFI-400945]
% Inhibition Average [1]: 1%
% Inhibition Duplicate #1 [1]: 1%
% Inhibition Duplicate #2 [1]: 1%
% Inhibition Average [2]: 3%
% Inhibition Duplicate #1 [2]: 2%
% Inhibition Duplicate #2 [2]: 4%
% Inhibition Average [3]: 0%
% Inhibition Duplicate #1 [3]: -2%
% Inhibition Duplicate #2 [3]: 3%
% Inhibition [4]: 13% and 16%
% Inhibition [5]: 45% and 42%
% Inhibition [6]: 5% and 4%
% Inhibition [7]: 39% and 40%
% Inhibition [8]: 8%
% Inhibition [9]: 13% and 11%
% Inhibition [10]: 59% and 55%
% Inhibition Average [11]: 13%
% Inhibition Duplicate #1 [11]: 13%
% Inhibition Duplicate #2 [11]: 13%
% Inhibition [12]: 4% and 6%
% Inhibition [13]: 5% and 4%
% Inhibition [14]: 20% and 26%
% Inhibition [15]: 55% and 58%
% Inhibition [16]: 11% and 14%
% Inhibition Average [17]: 7%
% Inhibition Duplicate #1 [17]: 6%
% Inhibition Duplicate #2 [17]: 8%
% Inhibition [18]: 10% and 11%
% Inhibition [19]: 1% and -1%
% Inhibition [20]: -1% and -8%
% Inhibition [21]: 5%
% Inhibition [22]: 3% and 2%
% Inhibition [23]: 8% and 5%
% Inhibition [24]: 11% and 16%
% Inhibition [25]: 13% and 8%
% Inhibition Average [26]: 7%
% Inhibition Duplicate #1 [26]: 10%
% Inhibition Duplicate #2 [26]: 4%
% Inhibition Average [27]: 7%
% Inhibition Duplicate #1 [27]: 1%
% Inhibition Duplicate #2 [27]: 13%
% Inhibition [28]: 6% and 3%
% Inhibition [29]: 56% and 53%
IC50 [29]: 200 nM
% Inhibition Average [30]: 4%
% Inhibition Duplicate #1 [30]: 5%
% Inhibition Duplicate #2 [30]: 3%
% Inhibition Average [31]: 5%
% Inhibition Duplicate #1 [31]: 4%
% Inhibition Duplicate #2 [31]: 5%
% Inhibition [32]: 5% and 11%
% Inhibition [33]: 8% and 13%
% Inhibition Average [34]: -1%
% Inhibition Duplicate #1 [34]: -1%
% Inhibition Duplicate #2 [34]: -2%
% Inhibition Average [35]: 7%
% Inhibition Duplicate #1 [35]: 7%
% Inhibition Duplicate #2 [35]: 7%
% Inhibition [36]: 2% and -1%
